These results are taken from patent US6835745B2, “Phenyl substituted thiophenes as estrogenic agents” (Wyeth, priority 2002, dated 2004).

One data set deals with T1, human ERα (Homo sapiens, UniProt P03372).
T1 construct: amino acids M250-V595 of human ERα; His (N); Flag (C); made in house; host or cells: E. coli BL21(DE3), clarified lysate
T1 sequence (P03372 250-595): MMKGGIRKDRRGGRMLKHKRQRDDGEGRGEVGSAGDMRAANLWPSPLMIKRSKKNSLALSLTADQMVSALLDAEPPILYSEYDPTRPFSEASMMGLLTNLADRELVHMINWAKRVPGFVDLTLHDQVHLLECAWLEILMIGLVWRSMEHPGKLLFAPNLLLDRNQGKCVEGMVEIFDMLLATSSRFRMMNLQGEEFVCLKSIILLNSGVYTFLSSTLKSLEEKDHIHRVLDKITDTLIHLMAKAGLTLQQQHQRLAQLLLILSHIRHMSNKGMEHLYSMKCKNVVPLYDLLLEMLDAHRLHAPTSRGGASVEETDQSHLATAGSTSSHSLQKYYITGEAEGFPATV
The data set is described as follows: Radioligand binding competition with [3H]-17β-estradiol, ERα. As to conditions: human ERα ligand binding domain extract, read-out: ER-α IC50.

The target in the next data set is T2, human ERβ (Homo sapiens, UniProt Q92731).
T2 construct: M214-Q530 of human ERβ; Flag (C); made in house; host or cells: E. coli BL21(DE3), clarified lysate
T2 sequence (Q92731 214-530): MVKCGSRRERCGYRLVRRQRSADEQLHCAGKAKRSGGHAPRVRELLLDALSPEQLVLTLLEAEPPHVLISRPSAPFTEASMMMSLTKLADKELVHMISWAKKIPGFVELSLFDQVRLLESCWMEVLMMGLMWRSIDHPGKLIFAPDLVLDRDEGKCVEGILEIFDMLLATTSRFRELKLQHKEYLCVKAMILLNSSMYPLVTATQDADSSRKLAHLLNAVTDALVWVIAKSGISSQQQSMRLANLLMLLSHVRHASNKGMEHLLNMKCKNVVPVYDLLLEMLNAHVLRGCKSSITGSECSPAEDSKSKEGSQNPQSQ
The data set is described as follows: Radioligand binding competition with [3H]-17β-estradiol, ERβ. The following applies: human ERβ ligand binding domain extract, read-out: ER-β IC50.

Data set [1] has as its system metallothionein-II mRNA in Saos-2 cells. As to the kind of experiment: Regulation of metallothionein II mRNA in Saos-2 cells. In kind it is cell-based. From the text: Estrogens acting through ERβ, but not ERα can upregulate metallothionein II mRNA levels in Saos-2 cells as described by Harris [Endocrinology 142: 645-652 (2001)]. Results from this test procedure can be combined with results from the test procedure described below (ERE reporter test procedure) to generate a selectivity profile for compounds of this invention (see also WO 00/37681).

Structures are written as SMILES.

As a reminder, the melting point is the temperature, or range, at which the solid turns liquid. The term IC50 denotes the midpoint of a concentration-inhibition curve. In the case of `Cc1cc(O)ccc1-c1c(C=O)sc(-c2ccc(O)cc2)c1C` [Example 3, 3-(4-Hydroxy-2-methylphenyl)-5-(4-hydroxyphenyl)-4-methyl-2-thiophenecarbaldehyde], the melting point is 244 to 247 °C. In addition, the IC50 on human ERα turned out to be 29 nM. In addition, the half-maximal inhibitory concentration (IC50) on human ERβ worked out at 5.5 nM.

Regarding `Cc1ccc(O)cc1-c1c(C=O)sc(-c2ccc(O)cc2)c1C` [Example 4, 3-(5-Hydroxy-2-methylphenyl)-5-(4-hydroxyphenyl)-4-methyl-2-thiophenecarbaldehyde], the IC50 on human ERα stood at 464 nM; at human ERβ, 174 nM.

With `Cc1c(-c2cccc(O)c2)sc(C=NO)c1-c1ccc(O)cc1` (mixture of isomers) [Example 21, 3-(4-Hydroxyphenyl)-5-(3-hydroxyphenyl)-4-methylthiophene-2-carbaldehyde oxime], the melting point was in the range of 240 to 241 °C. In addition, at human ERα, the 50% inhibitory concentration (IC50) came to 196 nM. The IC50 at human ERβ stood at 123 nM.

With `Cc1c(-c2ccc(O)cc2)sc(C=O)c1-c1ccc(O)cc1` [Example 15, 3,5-Bis(4-hydroxyphenyl)-4-methylthiophene-2-carbaldehyde], the melting point was in the range of 223 to 225 °C. Moreover, the half-inhibitory concentration (IC50) on human ERα was 31 nM. Also, at human ERβ, the IC50 came out at 2.1 nM. In data set [1], the “Fold upregulation of metallothionein-II mRNA” value was determined as 6.0.

Take `Cc1cc(O)ccc1-c1c(C=O)sc(-c2ccc(O)c(F)c2)c1C` [Example 9, 5-(3-Fluoro-4-hydroxyphenyl)-3-(4-hydroxy-2-methylphenyl)-4-methylthiophene-2-carbaldehyde]: the IC50 at human ERα worked out at 85 nM; on human ERβ, 12 nM.

`Cc1cc(O)ccc1-c1sc(C=O)c(-c2ccc(O)c(F)c2)c1C` [Example 12, 3-(3-Fluoro-4-hydroxyphenyl)-5-(4-hydroxy-2-methylphenyl)-4-methylthiophene-2-carbaldehyde]: the results for the IC50 on human ERα and on human ERβ were 89 nM and 13 nM, respectively.

Consider `Cc1c(-c2ccc(O)cc2)sc(C=O)c1-c1cccc(O)c1` [Example 1, 3-(3-Hydroxyphenyl)-5-(4-hydroxyphenyl)-4-methylthiophene-2-carbaldehyde], for which the melting point was in the range of 103 to 104 °C. For the same compound, the IC50 on human ERα amounted to 212 nM. Moreover, the IC50 on human ERβ was determined as 54 nM.

`Cc1c(-c2ccc(O)cc2)sc(C#N)c1-c1cccc(O)c1` [Example 17, 3-(3-Hydroxyphenyl)-5-(4-hydroxyphenyl)-4-methylthiophene-2-carbonitrile]: the melting point lay in the range of 220 to 222 °C. In addition, the IC50 on human ERα amounted to 305 nM. The half-maximal inhibitory concentration (IC50) on human ERβ was 83 nM.

Take `Cc1c(-c2ccc(O)c(F)c2)sc(C=O)c1-c1ccc(O)c(Cl)c1` [Example 10, 3-(3-Chloro-4-hydroxyphenyl)-5-(3-fluoro-4-hydroxyphenyl)-4-methylthiophene-2-carbaldehyde]: the melting point fell in the range of 252 to 254 °C. Also, on human ERα, the 50% inhibitory concentration (IC50) turned out to be 88 nM. The IC50 on human ERβ is 4 nM.

The compound `Cc1c(-c2ccc(O)cc2)sc(C=O)c1-c1ccc(O)c(C=O)c1` [Example 6, 3-(3-Formyl-4-hydroxyphenyl)-5-(4-hydroxyphenyl)-4-methyl-2-thiophenecarbaldehyde] showed a melting point of 228 to 230 °C. For the same compound, at human ERα, the IC50 was found to be 515 nM. The 50% inhibitory concentration (IC50) at human ERβ stood at 71 nM.

As to `Cc1c(-c2ccc(O)cc2)sc(C=NO)c1-c1cccc(O)c1` (mixture of isomers) [Example 16, 3-(3-Hydroxyphenyl)-5-(4-hydroxyphenyl)-4-methylthiophene-2-carbaldehyde oxime], the half-maximal inhibitory concentration (IC50) at human ERα was determined as 275 nM; at human ERβ, 91 nM.

As to `Cc1c(-c2ccc(O)cc2)sc(C=O)c1-c1ccc(O)c(F)c1` [Example 5, 3-(3-Fluoro-4-hydroxyphenyl)-5-(4-hydroxyphenyl)-4-methyl-2-thiophenecarbaldehyde], the IC50 on human ERα turned out to be 35.5 nM; on human ERβ it was 1.8 nM.

Regarding `Cc1c(-c2ccc(O)cc2)sc(C=O)c1-c1ccc(O)c(Cl)c1` [Example 7, 3-(3-Chloro-4-hydroxyphenyl)-5-(4-hydroxyphenyl)-4-methylthiophene-2-carbaldehyde], the IC50 on human ERα was 31 nM; at human ERβ, 1.7 nM.

`Cc1c(-c2cccc(O)c2)sc(C#N)c1-c1ccc(O)cc1` [Example 22, 3-(4-Hydroxyphenyl)-5-(3-hydroxyphenyl)-4-methylthiophene-2-carbonitrile]: the IC50 at human ERα was 299 nM; on human ERβ, 73 nM.

Take `Cc1c(-c2ccc(O)cc2)sc(C=NO)c1-c1ccc(O)cc1` (mixture of isomers) [Example 18, 3,5-Bis(4-hydroxyphenyl)-4-methylthiophene-2-carbaldehyde oxime]: the IC50 amounted to 86 nM on human ERα and 42 nM on human ERβ.

Turning to `Cc1c(-c2ccc(O)cc2)sc(C#N)c1-c1ccc(O)cc1` [Example 19, 3,5-Bis(4-hydroxyphenyl)-4-methylthiophene-2-carbonitrile], the IC50 came to 40 nM on human ERα and 3.6 nM on human ERβ.

With `Cc1cc(O)ccc1-c1sc(C=O)c(-c2ccc(O)cc2)c1C` [Example 11, 5-(4-Hydroxy-2-methylphenyl)-3-(4-hydroxyphenyl)-4-methyl-2-thiophenecarbaldehyde], the IC50 at human ERα came to 68 nM; on human ERβ, 7.8 nM.

As to `Cc1c(-c2ccc(O)c(Cl)c2)sc(C=O)c1-c1ccc(O)cc1` [Example 13, 5-(3-Chloro-4-hydroxyphenyl)-3-(4-hydroxyphenyl)-4-methylthiophene-2-carbaldehyde], the concentration for half-maximal inhibition (IC50) at human ERα stood at 293 nM; at human ERβ, 27 nM.

Compound `CON=Cc1sc(-c2ccc(O)cc2C)c(C)c1-c1ccc(O)c(F)c1` [Example 23, 3-(3-Fluoro-4-hydroxyphenyl)-5-(4-hydroxy-2-methylphenyl)-4-methylthiophene-2-carbaldehyde O-methyloxime] displayed a melting point of 172 to 177 °C. For the same compound, the IC50 on human ERα came out at 73 nM. Besides, on human ERβ, the IC50 was determined as 57 nM.

With `Cc1c(-c2ccc(O)c(F)c2)sc(C=O)c1-c1ccc(O)cc1` [Example 8, 5-(3-Fluoro-4-hydroxyphenyl)-3-(4-hydroxyphenyl)-4-methyl-2-thiophenecarbaldehyde], the melting point fell in the range of 227 to 229 °C. For the same compound, the IC50 at human ERα came to 93 nM. Moreover, the IC50 on human ERβ amounted to 5.3 nM.

Regarding `CON=Cc1sc(-c2ccc(O)cc2)c(C)c1-c1ccc(O)cc1` [Example 20, 3,5-Bis(4-hydroxyphenyl)-4-methylthiophene-2-carbaldehyde O-methyloxime], the figures for the half-inhibitory concentration (IC50) on human ERα and on human ERβ were 152 nM and 28 nM, respectively.

`Cc1c(-c2ccc(O)c(Cl)c2)sc(C=O)c1-c1ccc(O)c(F)c1` [Example 14, 5-(3-Chloro-4-hydroxyphenyl)-3-(3-fluoro-4-hydroxyphenyl)-4-methylthiophene-2-carbaldehyde]: the melting point fell in the range of 227 to 229 °C. Further, at human ERα, the IC50 is 157 nM. The IC50 at human ERβ came to 16 nM.
